Reference: patent publication US12686673B2 (Blueprint Medicines Corporation, priority 2020, dated 2026)

Legend:
Format in all cases: cell-based
[1] = target: HER2 (A775_G776insYVMA) expressing Ba/F3 stable cell line (Homo sapiens, UniProt P04626, DUP772-775, cells depend on it); experiment: Cellular proliferation (Alamar Blue) assay, HER2 A775_G776insYVMA Ba/F3; settings: 72 hr, read-out: YVMA IC50
Experimental: • 1. EGFR(D770_N771insSVD) expressing Ba/F3 stable cell line • 2. EGFR (A767_dupASV) expressing Ba/F3 stable cell line • 3. A431 cells • 4. EGFR (H773insNPH) expressing Ba/F3 stable cell line • 5. HER2 (A775_G776insYVMA) expressing Ba/F3 stable cell line Assay Procedure: • 1. Seed cells at 5000 for A431 and 15,000 cells for Ba/F3 in 100 μL/well in complete media (for A431: DMEM with […] and for Ba/F3 cells: RPMI with 10% FBS) in 96-well tissue culture plate. Leave outer wells without cells for background measurements. Incubate at 37 degree Celsius in […] humidified incubator for 16-18 hours. • 2. Add 0.025 ml of 5× concentration compound dilution or DMSO control. Final compound concentration range is 10-0.0005 μM prepared in 3-fold serial dilutions. Incubate for 72 hr at 37 degree Celsius in […] humidified incubator. • 3. Add 0.0125 ml Alamar Blue™ reagent to each well with multi-channel pipette and tap gently on each side of the plate to mix. Incubate for 3 hours at 37 degree Celsius in 5% CO2 humidified incubator. • 4. […] Data analysis was performed using XLfit 5.5.0.5.

[2] = target: EGFR(D770_N771insSVD) expressing Ba/F3 stable cell line (Homo sapiens, UniProt P00533, DUP768-770, cells depend on it); experiment: Cellular proliferation (Alamar Blue) assay, EGFR D770_N771insSVD Ba/F3; settings: 72 hr, read-out: D770 IC50
Summary of the method: (§1)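 Alamar Blue read-out, 3 h at 37 °C, after 72 hr compound exposure of Ba/F3 transfectants (15,000 cells/well, RPMI + 10% FBS, plated 16-18 h earlier).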

[3] = target: EGFR (A767_dupASV) expressing Ba/F3 stable cell line (Homo sapiens, UniProt P00533, DUP767-769, cells depend on it); experiment: Cellular proliferation (Alamar Blue) assay, EGFR A767_dupASV Ba/F3; settings: 72 hr, read-out: A767 IC50
Summary of the method: as §1

A431 cells = experiment: Cellular proliferation (Alamar Blue) assay, A431; settings: Homo sapiens, A-431; A431 cells, Alamar Blue, 72 hr; read-out: A431 IC50

Chain of EGFR(D770_N771insSVD) expressing Ba/F3 stable cell line (P00533 with tags, fused parts or gaps DUP768-770): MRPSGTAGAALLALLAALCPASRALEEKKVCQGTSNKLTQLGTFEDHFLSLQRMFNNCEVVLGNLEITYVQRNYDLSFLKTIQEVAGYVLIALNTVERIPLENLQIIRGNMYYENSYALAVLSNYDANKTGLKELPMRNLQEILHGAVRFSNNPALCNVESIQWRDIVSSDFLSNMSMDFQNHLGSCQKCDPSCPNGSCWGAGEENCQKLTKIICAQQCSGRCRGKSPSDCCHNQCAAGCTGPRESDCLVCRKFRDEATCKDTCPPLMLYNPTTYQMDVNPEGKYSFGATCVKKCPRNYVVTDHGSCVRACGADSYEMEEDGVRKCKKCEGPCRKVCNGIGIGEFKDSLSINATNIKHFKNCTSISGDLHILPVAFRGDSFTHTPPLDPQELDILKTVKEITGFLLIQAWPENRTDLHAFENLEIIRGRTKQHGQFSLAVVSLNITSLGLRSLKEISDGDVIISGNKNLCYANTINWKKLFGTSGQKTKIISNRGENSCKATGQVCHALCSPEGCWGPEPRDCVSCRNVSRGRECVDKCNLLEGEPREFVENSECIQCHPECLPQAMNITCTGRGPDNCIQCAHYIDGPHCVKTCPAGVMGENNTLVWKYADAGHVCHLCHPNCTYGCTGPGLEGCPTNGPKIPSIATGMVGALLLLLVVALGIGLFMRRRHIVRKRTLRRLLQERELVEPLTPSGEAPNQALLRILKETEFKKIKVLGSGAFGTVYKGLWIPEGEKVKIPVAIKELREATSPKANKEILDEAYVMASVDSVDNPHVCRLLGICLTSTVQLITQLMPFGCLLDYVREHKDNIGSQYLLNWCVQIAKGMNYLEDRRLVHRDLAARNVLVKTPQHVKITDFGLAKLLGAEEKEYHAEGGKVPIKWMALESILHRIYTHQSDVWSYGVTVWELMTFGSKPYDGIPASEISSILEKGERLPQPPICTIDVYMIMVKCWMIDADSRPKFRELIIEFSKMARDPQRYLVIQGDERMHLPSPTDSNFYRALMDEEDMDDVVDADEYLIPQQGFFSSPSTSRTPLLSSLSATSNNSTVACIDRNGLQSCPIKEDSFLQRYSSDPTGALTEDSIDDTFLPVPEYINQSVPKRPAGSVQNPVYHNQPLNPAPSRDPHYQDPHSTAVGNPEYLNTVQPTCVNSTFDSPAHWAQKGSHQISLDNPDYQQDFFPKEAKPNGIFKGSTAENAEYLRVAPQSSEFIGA
Chain of HER2 (A775_G776insYVMA) expressing Ba/F3 stable cell line (P04626 with tags, fused parts or gaps DUP772-775): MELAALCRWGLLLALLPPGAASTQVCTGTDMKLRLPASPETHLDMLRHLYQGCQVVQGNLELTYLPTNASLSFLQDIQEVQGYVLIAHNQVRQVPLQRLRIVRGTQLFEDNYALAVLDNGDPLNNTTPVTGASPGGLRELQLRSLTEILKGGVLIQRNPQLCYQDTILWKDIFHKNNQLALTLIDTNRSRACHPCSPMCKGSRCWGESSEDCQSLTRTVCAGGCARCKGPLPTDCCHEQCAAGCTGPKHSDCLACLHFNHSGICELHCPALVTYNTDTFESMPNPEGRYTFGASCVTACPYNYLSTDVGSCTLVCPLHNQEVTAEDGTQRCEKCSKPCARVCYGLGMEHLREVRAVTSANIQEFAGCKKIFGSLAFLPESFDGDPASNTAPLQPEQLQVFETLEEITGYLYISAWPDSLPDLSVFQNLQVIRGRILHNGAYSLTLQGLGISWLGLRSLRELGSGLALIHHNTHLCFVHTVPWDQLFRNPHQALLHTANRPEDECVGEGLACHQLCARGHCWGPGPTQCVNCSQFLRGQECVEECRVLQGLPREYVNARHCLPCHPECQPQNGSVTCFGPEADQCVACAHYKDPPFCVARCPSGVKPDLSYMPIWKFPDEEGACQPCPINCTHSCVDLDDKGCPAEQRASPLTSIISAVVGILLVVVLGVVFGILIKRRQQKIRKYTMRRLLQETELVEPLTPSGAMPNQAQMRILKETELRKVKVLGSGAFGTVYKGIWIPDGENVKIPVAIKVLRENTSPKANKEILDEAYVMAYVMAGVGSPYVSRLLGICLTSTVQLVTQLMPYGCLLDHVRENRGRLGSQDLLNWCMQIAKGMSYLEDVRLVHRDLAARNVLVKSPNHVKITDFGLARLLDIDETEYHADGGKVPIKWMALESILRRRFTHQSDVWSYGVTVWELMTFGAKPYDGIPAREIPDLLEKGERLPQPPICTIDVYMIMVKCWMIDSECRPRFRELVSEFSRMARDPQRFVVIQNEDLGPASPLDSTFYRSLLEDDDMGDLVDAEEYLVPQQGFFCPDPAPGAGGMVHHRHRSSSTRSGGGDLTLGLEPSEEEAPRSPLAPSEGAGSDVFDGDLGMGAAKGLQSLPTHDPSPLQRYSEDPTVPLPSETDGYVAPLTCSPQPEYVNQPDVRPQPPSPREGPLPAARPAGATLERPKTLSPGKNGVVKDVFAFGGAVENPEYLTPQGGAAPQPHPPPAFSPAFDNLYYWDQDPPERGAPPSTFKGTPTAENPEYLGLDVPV
Chain of EGFR (A767_dupASV) expressing Ba/F3 stable cell line (P00533 with tags, fused parts or gaps DUP767-769): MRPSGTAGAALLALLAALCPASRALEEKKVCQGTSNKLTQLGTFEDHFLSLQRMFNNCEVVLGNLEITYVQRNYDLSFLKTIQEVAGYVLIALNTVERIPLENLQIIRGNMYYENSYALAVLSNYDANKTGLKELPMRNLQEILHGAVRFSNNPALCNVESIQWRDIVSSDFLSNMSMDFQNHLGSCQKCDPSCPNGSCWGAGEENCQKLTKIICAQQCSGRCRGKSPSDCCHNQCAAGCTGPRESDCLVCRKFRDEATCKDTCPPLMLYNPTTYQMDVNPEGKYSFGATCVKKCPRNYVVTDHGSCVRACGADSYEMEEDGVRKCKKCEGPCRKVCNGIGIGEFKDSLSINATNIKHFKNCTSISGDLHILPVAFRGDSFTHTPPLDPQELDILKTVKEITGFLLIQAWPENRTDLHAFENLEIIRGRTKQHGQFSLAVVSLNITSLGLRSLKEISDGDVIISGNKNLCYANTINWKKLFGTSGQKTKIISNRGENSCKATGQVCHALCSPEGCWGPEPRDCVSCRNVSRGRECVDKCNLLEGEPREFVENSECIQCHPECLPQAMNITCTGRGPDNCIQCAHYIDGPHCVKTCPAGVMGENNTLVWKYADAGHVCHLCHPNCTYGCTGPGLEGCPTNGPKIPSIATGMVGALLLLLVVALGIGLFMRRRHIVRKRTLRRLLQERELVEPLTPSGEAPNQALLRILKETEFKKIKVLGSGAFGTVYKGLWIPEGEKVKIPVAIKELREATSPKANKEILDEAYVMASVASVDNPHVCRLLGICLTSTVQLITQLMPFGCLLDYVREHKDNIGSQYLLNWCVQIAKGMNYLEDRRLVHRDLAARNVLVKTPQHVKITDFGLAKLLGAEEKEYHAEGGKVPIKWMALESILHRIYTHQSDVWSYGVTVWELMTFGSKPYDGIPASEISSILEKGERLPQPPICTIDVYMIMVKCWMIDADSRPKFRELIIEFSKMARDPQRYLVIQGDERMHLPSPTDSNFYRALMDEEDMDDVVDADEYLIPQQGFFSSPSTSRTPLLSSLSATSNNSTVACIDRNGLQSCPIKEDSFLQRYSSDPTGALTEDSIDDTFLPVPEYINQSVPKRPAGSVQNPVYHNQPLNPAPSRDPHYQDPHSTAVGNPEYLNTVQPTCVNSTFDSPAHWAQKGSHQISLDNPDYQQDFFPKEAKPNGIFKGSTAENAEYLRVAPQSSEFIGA

SMILES | GI50 [1] [µM] | GI50 [2] [µM] | GI50 [3] [µM] | IC50 (A431 cells) [µM]
CN(C)C/C=C/C(=O)Nc1ccc(F)c(Nc2nc(Nc3cnn(CCO)c3)ncc2Cl)c1 [Compound 16, (E)-N-(3-((5-chloro-2-((1-(2-hydroxyethyl)-1H-pyrazol-4-yl)amino)pyrimidin-4-yl)amino)-4-fluorophenyl)-4-(dimethylamino)but-2-enamide] | 1.7 | 9.06 | 8.84 | 9.04
CN(C)C/C=C/C(=O)Nc1cccc(Nc2nc(Nc3cnn(C)c3)ncc2CNc2ccccc2)c1 [Compound 17, (E)-4-(dimethylamino)-N-(3-((2-((1-methyl-1H-pyrazol-4-yl)amino)-5-((phenylamino)methyl)pyrimidin-4-yl)amino)phenyl)but-2-enamide] | 1.88 | 1.53 | 1.02 | 7.74
C=CC(=O)Nc1cccc(Nc2nc(Nc3cnn(C)c3)ncc2CN(C(C)=O)c2ccccc2)c1 [Compound 18] | > 10 | > 10 | 7.16 | > 10
C=CC(=O)Nc1cccc(Nc2nc(Nc3cnn(C)c3)ncc2CN(C(C)=O)C(C)c2ccccc2)c1 (centres unmarked) [Compound 19, N-(3-((2-((1-methyl-1H-pyrazol-4-yl)amino)-5-((N-(1-phenylethyl)acetamido)methyl)pyrimidin-4-yl)amino)phenyl)acrylamide] | > 10 | > 10 | > 10 | > 10
C=CC(=O)Nc1cccc(Nc2nc(Nc3cnn(C)c3)ncc2NS(=O)(=O)c2ccccc2)c1 [Compound 29, N-(3-((2-((1-methyl-1H-pyrazol-4-yl)amino)-5-(phenylsulfonamido)pyrimidin-4-yl)amino)phenyl)acrylamide] | > 10 | > 10 | > 10 | > 10
C=CC(=O)Nc1ccc(F)c(Nc2nc(Nc3ccn(C)n3)ncc2Cl)c1 [Compound 30, N-(3-((5-chloro-2-((1-methyl-1H-pyrazol-3-yl)amino)pyrimidin-4-yl)amino)-4-fluorophenyl)acrylamide] | 2.64 | > 10 | 9.63 | > 10
C=CC(=O)Nc1ccc(F)c(Nc2nc(Nc3ccnn3C)ncc2Cl)c1 [Compound 31, N-(3-((5-chloro-2-((1-methyl-1H-pyrazol-5-yl)amino)pyrimidin-4-yl)amino)-4-fluorophenyl)acrylamide] | 5.18 | 9.96 | 9.87 | 9.8
C=CC(=O)Nc1cccc(Nc2nc(Nc3cnn(C)c3)ncc2NCc2ccccc2)c1 [Compound 32, N-(3-((5-(benzylamino)-2-((1-methyl-1H-pyrazol-4-yl)amino)pyrimidin-4-yl)amino)phenyl)acrylamide] | 1.61 | 0.824 | 0.885 | > 10
CN(C)C/C=C/C(=O)Nc1cccc(Nc2nc(Nc3cnn(C)c3)ncc2NCc2ccccc2)c1 [Compound 33, (E)-N-(3-((5-(benzylamino)-2-((1-methyl-1H-pyrazol-4-yl)amino)pyrimidin-4-yl)amino)phenyl)-4-(dimethylamino)but-2-enamide] | 3.03 | 2.98 | 4.07 | 4.01
CC(NC(=O)c1cnc(Nc2cnn(C)c2)nc1Nc1cccc(NC(=O)/C=C/CN(C)C)c1)c1ccccc1 (centres unmarked) [Compound 35, (E)-4-((3-(4-(dimethylamino)but-2-enamido)phenyl)amino)-2-((1-methyl-1H-pyrazol-4-yl)amino)-N-(1-phenylethyl)pyrimidine-5-carboxamide] | > 10 | > 10 | > 10 | > 10
C=CC(=O)Nc1cccc(Nc2nc(Nc3cnn(C)c3)ncc2C(C)N(Cc2ccccc2)C(C)=O)c1 (centres unmarked) [Compound 47, N-(3-((5-(1-(N-benzylacetamido)ethyl)-2-((1-methyl-1H-pyrazol-4-yl)amino)pyrimidin-4-yl)amino)phenyl)acrylamide] | > 10 | 8.85 | 7.08 | > 10
C=CC(=O)Nc1cccc(Nc2nc(Nc3cnn(C)c3)ncc2CN(Cc2ccccc2)C(C)=O)c1 [Compound 48, N-(3-((5-((N-benzylacetamido)methyl)-2-((1-methyl-1H-pyrazol-4-yl)amino)pyrimidin-4-yl)amino)phenyl)acrylamide] | > 10 | 8.8 | > 10 | > 10
C=CC(=O)Nc1ccc(F)c(Nc2nc(Nc3cnn(C)c3)ncc2NS(=O)(=O)c2ccccc2)c1 [Compound 51, N-(4-fluoro-3-((2-((1-methyl-1H-pyrazol-4-yl)amino)-5-(phenylsulfonamido)pyrimidin-4-yl)amino)phenyl)acrylamide] | > 10 | > 10 | > 10 | > 10
C=CC(=O)Nc1ccc(F)c(Nc2nc(Nc3cnn(C)c3)ncc2-c2ccc(N3CCOCC3)nc2)c1 [Compound 55, N-[4-fluoro-3-({2-[(1-methyl-1H-pyrazol-4-yl)amino]-5-[6-(morpholin-4-yl)pyridin-3-yl]pyrimidin-4-yl}amino)phenyl] prop-2-enamide] | 1.87 | 0.945 | 0.492 | > 10
C=CC(=O)Nc1ccc(F)c(Nc2nc(Nc3cnn(C)c3)ncc2-c2cccc(NC(C)=O)c2)c1 [Compound 59, N-(3-((5-(3-acetamidophenyl)-2-((1-methyl-1H-pyrazol-4-yl)amino)pyrimidin-4-yl)amino)-4-fluorophenyl)acrylamide] | ≥ 10 | > 10 | > 10 | > 10

Further lines, results first:

GI50 [1] [µM] | GI50 [2] [µM] | GI50 [3] [µM] | IC50 (A431 cells) [µM] | SMILES
4.72 | > 10 | > 10 | > 10 | C/C=C/C(=O)Nc1ccc(F)c(Nc2nc(Nc3cnn(C)c3)ncc2Cl)c1 [Compound 11, (E)-N-(3-((5-chloro-2-((1-methyl-1H-pyrazol-4-yl)amino)pyrimidin-4-yl)amino)-4-fluorophenyl)but-2-enamide]
7.03 | > 10 | > 10 | > 10 | C=C(C)C(=O)Nc1ccc(F)c(Nc2nc(Nc3cnn(C)c3)ncc2Cl)c1 [Compound 12, N-(3-((5-chloro-2-((1-methyl-1H-pyrazol-4-yl)amino)pyrimidin-4-yl)amino)-4-fluorophenyl)methacrylamide]
> 10 | > 10 | > 10 | > 10 | C=CC(=O)Nc1ccc(OC)c(Nc2nc(Nc3cnn(C)c3)ncc2Cl)c1 [Compound 13, N-(3-((5-chloro-2-((1-methyl-1H-pyrazol-4-yl)amino)pyrimidin-4-yl)amino)-4-methoxyphenyl)acrylamide]
0.543 | 0.373 | 0.371 | 4.22 | C=CC(=O)Nc1ccc(F)c(Nc2nc(Nc3cnn(CCO)c3)ncc2Cl)c1 [Compound 15, N-(3-((5-chloro-2-((1-(2-hydroxyethyl)-1H-pyrazol-4-yl)amino)pyrimidin-4-yl)amino)-4-fluorophenyl)acrylamide]
0.416 | 0.357 | 0.332 | 8.15 | C=CC(=O)Nc1ccc(F)c(Nc2nc(Nc3cnn(C)c3)ncc2C(F)(F)F)c1 [Compound 36, N-(4-fluoro-3-((2-((1-methyl-1H-pyrazol-4-yl)amino)-5-(trifluoromethyl)pyrimidin-4-yl)amino)phenyl)acrylamide]
8.62 | 1.73 | 1.47 | > 10 | C=CC(=O)Nc1ccc(F)c(Nc2nc(Nc3cnn(C)c3)ncc2NC(=O)c2ccccc2)c1 [Compound 50, N-(4-((5-acrylamido-2-fluorophenyl)amino)-2-((1-methyl-1H-pyrazol-4-yl)amino)pyrimidin-5-yl)benzamide]
6.58 | 7.94 | 7.65 | > 10 | C=CC(=O)Nc1ccc(F)c(Nc2nc(Nc3cnn(C)c3)ncc2-c2cccc(C(=O)NC)c2)c1 [Compound 60, 3-(4-((5-acrylamido-2-fluorophenyl)amino)-2-((1-methyl-1H-pyrazol-4-yl)amino)pyrimidin-5-yl)-N-methylbenzamide]
2.59 | 0.323 | 0.307 | > 10 | C=CC(=O)Nc1ccc(F)c(Nc2nc(Nc3cnn(C)c3)ncc2-c2ccc(C#N)cc2)c1 [Compound 62, N-(3-((5-(4-cyanophenyl)-2-((1-methyl-1H-pyrazol-4-yl)amino)pyrimidin-4-yl)amino)-4-fluorophenyl)acrylamide]
